In patent publication US12016353B2, “Compositions and methods for aquaculturing” (The State of Israel, Ministry of Agriculture & Rural …, priority 2017, dated 2024):

How the values were obtained:
Assay type in all cases: in vivo, Sparus aurata
[1] = system: proximal intestine epithelium; experiment: Histological analysis of proximal intestine cross sections of sea bream (inner/outer perimeter ratio); conditions: 1.6% sodium butyrate, independent of dietary protein level, P<0.001, FIG. 9
Experimental: During the 13 week trial, fish were weighed approximately every two weeks. The data were used to calculate growth rates and to adjust the daily rations of feed. At the end of the trial, 6 fish from each tank were sampled for calculating gut index and extracting their proximal intestine total RNA. Two other fish were sampled for histology and body composition. All sampling procedures were performed as described.
Fish were euthanized with an overdose of MS2-22 (Sigma Aldrich, USA) followed by a swift decapitation and then dissected for the removal of their gastrointestinal tract. For total RNA, the 1st segment of the proximal intestine (approx. 1 cm) was cut, immediately frozen and stored at −80° C. until RNA extraction. […] For each fish, gut index was calculated using the following formula: Gut index=100×Body weight (g)/(intestine length (mm))^3.
Standard protocol for histological analysis was implemented (Grate et al., 2003). […] Intestinal cross sections were photographed under a stereo zoom microscope (Axio Zoom.V16, Zeiss, Germany) and the inner and outer perimeter (mm) of the sections were measured using ImageJ software (imagej(dot)nih(dot)gov/ij/). […] The calculated ratio (inner perimeter/outer perimeter) for each section was then averaged for each slide/sample and analyzed for differences between treatments.

[2] = system: PepT1; experiment: Sustained effect of dietary butyrate on PepT1 mRNA expression in gilthead sea bream; conditions: for PepT1 transcription levels after butyrate feeding had ceased: 6 days after feeding butyrate ceased
Experimental: (§1) The experimental set up consisted of 200 L circular tanks in a flow through, filtered (10 μm) ambient seawater (40‰) system under a natural photoperiod of about 12 h/12 h (dark/light) where the water temperature ranged between 24.8-25.4° C. Experimental diets were offered to the fish twice a day (9:00; 14:00).
For determining whether (1) an effect of dietary butyrate on PepT1 transcriptional level is sustained after its supplementation has stopped and (2) to investigate an effect of dietary butyrate on Cdx1b expression. To this end another study was carried out. In this trial, fish having an average weight of 27.14±0.47 g (mean±SEM) were stocked at a density of 30 fish per tank with two replicate tanks per treatment. Fish were fed with the experimental diets (Table 4) including 1% taurine and 0, 0.8 and 1.6% of sodium butyrate for 8 days before its supplementation was stopped and all of the dietary groups started receiving the 0% sodium butyrate containing diet. Four fish from each tank (8 fish per dietary treatment) were sampled for their proximal intestine total RNA at days 9, 12 and 15 of the trial.
Fish were euthanized with an overdose of MS2-22 (Sigma Aldrich, USA) followed by a swift decapitation and then dissected for the removal of their gastrointestinal tract. For total RNA, the 1st segment of the proximal intestine (approx. 1 cm) was cut, immediately frozen and stored at −80° C. until RNA extraction. For histology, pieces of the proximal intestine (approx. 0.6 cm) were sampled, placed in 15 ml Falcon tubes containing 10% neutral buffered formalin (NBF) and stored at room temperature until processed. For immunohistochemistry (IHC-P) staining, pieces of proximal intestine (approx. 0.6 cm) were sampled, placed in 1.7 ml microcentrifuge tubes containing 4% paraformaldehyde (PFA) and stored at 4° C. for overnight fixation. After fixation, the intestinal samples were rinsed twice and washed three times (10 min each) with PBST 0.8% (PBS with 0.8% Triton x-100, Sigma Aldrich, USA). Following this, the samples were gradually dehydrated by one 5 min wash with 50% methanol in PBST followed by three more washings with 100% methanol and stored in 100% methanol at −20° C. until carrying out the staining procedure. After the removal of the gastrointestinal tract, the remaining carcasses of sampled fish were put into nylon bags and stored at −20° C. until proximate analysis. In order to calculate the gut index (GI), fish were weighed prior to the removal of their gastrointestinal tract. The intestines were separated from the stomach and pyloric caeca and then aligned, by forceps, against a ruler for measuring their length (mm). For each fish, gut index was calculated using the following formula: Gut index=100×Body weight (g)/(intestine length (mm))^3.
(§2) Total RNA extraction from samples of the proximal intestine was carried out using BioTri reagent (Biolab, Israel) according to the manufacturer's instructions. For determining total RNA quality and concentration, 2 μl from each sample diluted with 18 μl of DEPC treated water (1:10) were loaded onto a 384 well microplate (Greiner Bio-One, Austria). In each sample the 260/280 ratio, 260/230 ratio and RNA concentration were obtained by plate reader and Gen5 software (Synergy HT, BioTek, USA). For each RNA extraction procedure, the integrity of the extracted RNA was evaluated by electrophoresis on 1.2% agarose gel stained with GelRed (Biotium, USA). […]

[3] = system: PCNA; experiment: PCNA mRNA expression in sea bream proximal intestine (intestinal epithelial cell proliferation); conditions: 0.8% sodium butyrate diet for 9 days, 1.5 h after feeding, P<0.05, FIG. 6
Experimental: Fish having an average weight of 14.49±0.2 g (mean±SEM) were stocked in 15 tanks at a density of 30 fish tank^−1 with 5 replicate tanks (assigned as A-E) dietary treatment^−1. […]
as §2
Specific real-time PCR primers (Table 6) were designed for amplifying the sea bream PepT1 (accession no. GU733710.1), PCNA (accession no. CX734891.1), CCK, Cdx1b and β-actin (accession no. AY362763.1) transcripts. Quantification of target gene transcripts of different treatments was achieved by PCR reaction mix (10 μl) containing SYBR Green dye (Quanta, Perfecta; SYBR Green FastMix, Low ROX; 95074-012), template cDNA and 500 nM of target specific primers in a quantitative PCR system (Applied Biosystems, 7500 Fast Real Time PCR System). […]

[4] = system: PepT1; experiment: PepT1 pattern of expression during the day in gilthead sea bream (10 day trial); conditions: diet with 0.8% sodium butyrate and 1% taurine versus control, FIG. 4
Experimental: as §1
Fish having an average weight of 14.49±0.2 g (mean±SEM) were stocked in […] at a density of 30 fish tank^−1 with 5 replicate tanks (assigned as A-E) dietary treatment^−1. During the 10 day trial, fish were offered the experimental diets (Table 4) with 1% taurine and with 0 and 0.8% of sodium butyrate (Sigma Aldrich, USA). […]
Fish were euthanized with an overdose of MS2-22 (Sigma Aldrich, USA) followed by a swift decapitation and then dissected for the removal of their gastrointestinal tract. […] For each fish, gut index was calculated using the following formula: Gut index=100×Body weight (g)/(intestine length (mm))^3.
as §2, with “For determining total RNA quality and concentration, 2 μl from each sample diluted with 18 μl of DEPC treated water (1:10) were loaded onto a 384 well microplate (Greiner Bio-One, Austria).” left out

Question: With `CCCC(=O)[O-].[Na+]` [sodium butyrate] as the compound, how does the “expansion of the inner to outer perimeter ratio of the proximal intestine” value [1] read?
Answer: approximately 30%

Question: And the “PepT1 transcription levels after butyrate feeding had ceased” value ([2]; 0.8% butyrate for 8 days, FIG. 5B)?
Answer: remained higher than the control

Question: And the PepT1 transcription ([2]; 0.8% butyrate in diet for 8 days versus control, FIG. 5A)?
Answer: significantly (P<0.001) increased

Question: And the “PepT1 transcription levels after butyrate feeding had ceased” value ([2]; 1.6% butyrate for 8 days, FIG. 5C)?
Answer: remained higher than the control

Question: What about the PepT1 transcription ([2]; 1.6% butyrate in diet for 8 days versus control, FIG. 5A) of the same compound?
Answer: significantly (P<0.001) increased

Question: And the “PepT1 transcription, increase over control” value ([2]; 1.6% butyrate in diet for 8 days, FIG. 5A)?
Answer: more than 2 fold

Question: What about the “PCNA expression relative to control” value [3] of the same compound?
Answer: more than 2 fold

Question: And the “PepT1 expression prior to the morning feeding” value [4]?
Answer: significantly (P<0.01) higher PepT1 expression
